Our source for the inhibition and INHIBITION values is patent publication US3959351A, “Haloalkylbenzoyl esters of di-lower alkylamino alkanols and quaternary lower alkyl salts thereof” (priority 1972, dated 1976).

SMILES strings stand for the structures.

In the experiment the target is electric eel cholinesterase (Type V) (Electrophorus electricus, UniProt O42275). The experiment is described as follows: Inhibition of electric eel cholinesterase (Type V) by substituted benzoyl cholines (method of Rappaport et al.). It counts as biochemical. As to conditions: incubated with enzyme at room temperature (22°) for 40 minutes. As for the experimental part:
As stated heretofore, the compounds of the present invention when tested for inhibition of eel cholinesterase show good activity at rather low concentrations. Inhibition of cholinesterase activity of generally recognized as having positive correlation which insecticidal activity.
INHIBITION OF ELECTRIC EEL CHOLINESTERASE (TYPE V)
BY SUBSTITUTED BENZOYL CHOLINES
Activity Measurement Method:
*Reagent incubated with enzyme at room temperature (22°) for 40

The mark [1] stands for this setting: 40 min, Bromomethyl- reagent type, concentration 10^-^4 M.
Where [2] appears, read: Bromomethyl- reagent type, concentration 10^-^6 M.
[3] abbreviates: 40 min, Formyl- reagent type, concentration 10^-^4 M.
Where [4] appears, read: Formyl- reagent type, concentration 10^-^3 M.
[5] abbreviates: Bromomethyl- reagent type, concentration 10^-^4 M.
The mark [6] stands for this setting: Formyl- reagent type, concentration 10^-^4 M.

Chain of electric eel cholinesterase (Type V) (O42275 24-633): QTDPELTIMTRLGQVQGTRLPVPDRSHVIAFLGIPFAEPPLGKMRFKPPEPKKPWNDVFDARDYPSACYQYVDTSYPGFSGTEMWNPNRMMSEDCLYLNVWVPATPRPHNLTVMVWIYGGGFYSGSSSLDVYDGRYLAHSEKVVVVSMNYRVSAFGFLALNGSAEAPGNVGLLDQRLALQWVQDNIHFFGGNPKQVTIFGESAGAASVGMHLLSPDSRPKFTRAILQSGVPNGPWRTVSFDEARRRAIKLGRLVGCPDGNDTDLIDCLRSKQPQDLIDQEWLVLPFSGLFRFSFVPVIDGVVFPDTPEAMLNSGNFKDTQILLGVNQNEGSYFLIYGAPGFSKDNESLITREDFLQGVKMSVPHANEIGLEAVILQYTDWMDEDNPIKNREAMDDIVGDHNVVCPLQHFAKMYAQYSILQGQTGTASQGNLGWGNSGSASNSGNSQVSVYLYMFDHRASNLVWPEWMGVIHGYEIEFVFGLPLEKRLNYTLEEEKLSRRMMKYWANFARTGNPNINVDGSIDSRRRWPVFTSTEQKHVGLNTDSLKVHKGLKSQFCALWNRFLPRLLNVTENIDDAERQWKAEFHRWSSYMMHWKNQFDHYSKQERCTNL

Regarding `C[N+](C)(C)CCOC(=O)c1cccc(CBr)c1CBr.[I-]` [2,3 Bromomethyl-, 2,3-di(bromomethyl)benzoyl choline iodide], the inhibition (as a rule, the percentage by which the read-out fell short of the control) at 100 µM under setting [1] stood at 40%. Moreover, under setting [2], the INHIBITION result is on record as “None”.

The compound `C[N+](C)(C)CCOC(=O)c1cccc(C=O)c1C=O.[I-]` [2,3 Formyl-, 2,3-diformylbenzoyl choline iodide] showed an inhibition at 100 µM under setting [3] of 50%. Further, the INHIBITION entry under setting [4] is given as “Complete”.

Consider `C[N+](C)(C)CCOC(=O)c1ccc(CBr)cc1CBr.[I-]` [2,4 Bromomethyl-, 2,4-di(bromomethyl)benzoyl choline iodide], for which the INHIBITION entry under setting [5] is “Complete” and the INHIBITION entry under setting [2] is “None”.

In turn, `C[N+](C)(C)CCOC(=O)c1ccc(C=O)cc1C=O.[I-]` [2,4 Formyl-, 2,4-diformylbenzoyl choline iodide] registered an inhibition at 100 µM under setting [3] of 50%. Besides, the INHIBITION result under setting [4] was “Complete”.

For the compound `C[N+](C)(C)CCOC(=O)c1cc(CBr)ccc1CBr.[I-]` [2,5 Bromomethyl-, 2,5-di(bromomethyl)benzoyl choline iodide], under setting [1], the inhibition at 100 µM was determined as 80%. Under setting [2], the INHIBITION entry is given as “None”.

In the case of `C[N+](C)(C)CCOC(=O)c1cc(C=O)ccc1C=O.[I-]` [2,5 Formyl-, 2,5-diformylbenzoyl choline iodide], the inhibition at 100 µM under setting [3] was determined as 50%. The INHIBITION entry under setting [4] is listed as “Complete”.

As to `C[N+](C)(C)CCOC(=O)c1ccc(CBr)c(CBr)c1` [3,4 Bromomethyl-, 3,4-di(bromomethyl)benzoyl choline iodide], the inhibition at 100 µM under setting [1] stood at 90%. This compound returned an inhibition at 1 µM (40 min, Bromomethyl- reagent type, concentration 10^-^6 M) of 30%.

Compound `C[N+](C)(C)CCOC(=O)c1ccc(C=O)c(C=O)c1.[I-]` [3,4 Formyl-, 3,4-diformylbenzoyl choline iodide] showed an inhibition at 100 µM under setting [3] of 25%. Moreover, under setting [4], the INHIBITION entry is on record as “Complete”.

Regarding `C[N+](C)(C)CCOC(=O)c1cc(CBr)cc(CBr)c1.[I-]` [3,5 Bromomethyl-, 3,5-di(bromomethyl)benzoyl choline iodide], 100 µM produced 90% inhibition under setting [1]. For the same compound, the INHIBITION result under setting [2] is given as “None”.

Consider `C[N+](C)(C)CCOC(=O)c1cc(C=O)cc(C=O)c1.[I-]` [3,5 Formyl-, 3,5-diformylbenzoyl choline iodide], for which the INHIBITION result under setting [4] is recorded as “Complete” and the INHIBITION result under setting [6] is on record as “Complete”.

As to `C[N+](C)(C)CCOC(=O)c1cccc(CBr)c1.[I-]` [meta Bromomethyl-, m-bromomethyl benzoyl choline iodide], the INHIBITION result is listed as “None” under setting [5] and “None” under setting [2].

With `C[N+](C)(C)CCOC(=O)c1cccc(C=O)c1.[I-]` [meta Formyl-, m-formylbenzoyl choline iodide], the inhibition at 1000 µM (40 min, Formyl- reagent type, concentration 10^-^3 M) is 60%. For the same compound, the INHIBITION entry under setting [6] is reported as “None”.

As for `C[N+](C)(C)CCOC(=O)c1ccccc1CBr.[I-]` [ortho Bromomethyl-, o-bromomethyl benzoyl choline iodide], the INHIBITION result is recorded as “None” under setting [5] and “None” under setting [2].

Turning to `C[N+](C)(C)CCOC(=O)c1ccccc1C=O.[I-]` [ortho Formyl-, o-formylbenzoyl choline iodide], the INHIBITION result is listed as “None” under setting [4] and “None” under setting [6].

For the compound `C[N+](C)(C)CCOC(=O)c1ccc(CBr)cc1.[I-]` [para Bromomethyl-, para-bromomethyl benzoyl choline iodide], the INHIBITION result by setting is: under setting [5], “Complete”; under setting [2], “None”.

As for `C[N+](C)(C)CCOC(=O)c1ccc(C=O)cc1.[Br-]` [para Formyl-, p-Formyl benzoyl choline bromide], the INHIBITION result is on record as “Complete” under setting [4] and “None” under setting [6].
